Measured values as given in patent US4956367A, “2-amino-4-morpholino-6-propyl-1,3,5-triazines” (U C B S.A., priority 1988, dated 1990).

test: Toxicity (Irwin's test); assay type: in vivo; settings: mice, intraperitoneal
Description: Progressive doses of the compound to be tested are administered intraperitoneally to groups of three mice until the lethal dose is reached (dose which causes the death of two animals out of three within 48 hours).

Row | SMILES | Lethal dose (death of two animals out of three within 48 hours)
1 | CCCc1nc(NC(C)=O)nc(N2CCOCC2)n1 | 905 mg/kg
2 | CCCc1nc(N2CCOCC2)nc(N(C)C(C)=O)n1 | 947 mg/kg
3 | CCCc1nc(NO)nc(N2CCOCC2)n1 [Compound 2, 2-(hydroxyamino)-4-morpholino-6-propyl-1,3,5-triazine] | 718 mg/kg
4 | CCCc1nc(NCCCO)nc(N2CCOCC2)n1 [Compound 3] | 844 mg/kg
5 | CCCc1nc(NCCCCO)nc(N2CCOCC2)n1 [Compound 4] | 886 mg/kg
6 | CCCc1nc(NCC(C)O)nc(N2CCOCC2)n1 (centres unmarked) [Compound 5] | 563 mg/kg
7 | CCCc1nc(NCC(O)CC)nc(N2CCOCC2)n1 (centres unmarked) [Compound 6] | 886 mg/kg
8 | CCCc1nc(NC(C)(C)CO)nc(N2CCOCC2)n1 [Compound 8] | 886 mg/kg
9 | CCCc1nc(NCCOC)nc(N2CCOCC2)n1 [Compound 10, 2-[(2-methoxyethyl)amino]-4-morpholino-6-propyl-1,3,5-triazine] | 844 mg/kg
10 | CCCc1nc(NCC(O)CO)nc(N2CCOCC2)n1 (centres unmarked) [Compound 11] | 892 mg/kg
11 | CCCc1nc(NC(CO)(CO)CO)nc(N2CCOCC2)n1 [Compound 12] | 982 mg/kg
12 | CCCc1nc(NC(C)(CO)CO)nc(N2CCOCC2)n1 [Compound 13] | 934 mg/kg
13 | CCCc1nc(N2CCOCC2)nc(N(CCO)Cc2ccccc2)n1 [Compound 14] | > 1073 mg/kg
14 | CCCc1nc(NC(CO)C(O)c2ccccc2)nc(N2CCOCC2)n1 (centres unmarked) [Compound 15] | 1121 mg/kg
15 | CCCc1nc(NC[C@H](C)O)nc(N2CCOCC2)n1 [Compound 16, (S)-3-[(4-morpholino-6-propyl-1,3,5-triazin-2-yl)amino]-2-propanol] | 844 mg/kg
16 | CCCc1nc(NC[C@@H](C)O)nc(N2CCOCC2)n1 [Compound 17] | 844 mg/kg
17 | CCCc1nc(NCC2(O)CCCCC2)nc(N2CCOCC2)n1 [Compound 18] | 1007 mg/kg
18 | CCCc1nc(N2CCOCC2)nc(N2CCCC2CO)n1 (centres unmarked) [Compound 19] | 1031 mg/kg
19 | CCCc1nc(NC(=O)Cc2ccccc2)nc(N2CCOCC2)n1 [Compound 23] | > 1024 mg/kg
20 | CCCc1nc(NC(=O)C(C)C)nc(N2CCOCC2)n1 [Compound 24] | 880 mg/kg
21 | CCCc1nc(NC(=O)Oc2ccccc2)nc(N2CCOCC2)n1 [Compound 28, phenyl (4-morpholino-6-propyl-1,3,5-triazin-2-yl)carbamate] | > 1030 mg/kg
22 | CCCc1nc(NC(=O)c2ccc(Cl)cc2)nc(N2CCOCC2)n1 [Compound 29] | 398 mg/kg
23 | CCCc1nc(N2CCOCC2)nc(N(C)C(=O)c2ccc(Cl)cc2)n1 [Compound 30] | 1125 mg/kg
24 | CCCc1nc(NC(=O)c2ccc(OC)cc2)nc(N2CCOCC2)n1 [Compound 31] | 511 mg/kg
25 | CCCc1nc(N2CCOCC2)nc(N(C)C(=O)c2ccc(OC)cc2)n1 [Compound 32] | 1222 mg/kg
26 | CCCc1nc(NC(=O)c2ccc(C)cc2)nc(N2CCOCC2)n1 [Compound 33] | 1132 mg/kg
